Test results published in patent US20250099475A1, “METHODS OF TREATING HYPERTENSION BY PERIODIC SUPPRESSION OF ALDOSTERONE SYNTHASE” (Mineralys Therapeutics, Inc., priority 2022, published 2025).

Legend:
hypertensive subjects = test: Example 4 dose-ranging study: 24-hour ambulatory blood pressure monitoring (ABPM); format: in vivo, human; settings: for Change in ABPM (24 h) BPdias, Mean (sem) / Change in ABPM (24 h) BPmcan, Mean (sem) / Change in ABPM (24 h) BPsys, Mean (sem) / Change in ABPM (night) BPsys, Mean (sem) / Subjects with nighttime Dip 10-20% / Subjects with nighttime Dip <10% / Subjects with nighttime Dip >20%: Week 8, Full Analysis Set
cardiovascular system [1] = test: Cardiovascular system in telemetered monkeys; format: in vivo, cynomolgus monkey; settings: single oral doses up to 100-mg/kg as free base
Experimental: Effects of Compound A on the cardiovascular system were evaluated with conscious telemetered cynomolgus monkeys. Single doses of 0, 10, 30, or 100 mg/kg of Compound A as free base were orally administered to four male monkeys in a Latin-square design with a 7-day interval between dosing. Blood pressure, heart rate, and electrocardiogram parameters (PR interval, QRS duration, QT interval, and QTcB) were evaluated up to 24 hours after each dosing.

hERG channel = target: T1, hERG channel (Homo sapiens, UniProt Q12809); test: Effects on hERG current, whole-cell patch-clamp in HEK293 cells; format: cell-based
T1 construct: expressed in transfected cells; host or cells: HEK293 cells stably expressing hERG
T1 sequence (Q12809 whole entry): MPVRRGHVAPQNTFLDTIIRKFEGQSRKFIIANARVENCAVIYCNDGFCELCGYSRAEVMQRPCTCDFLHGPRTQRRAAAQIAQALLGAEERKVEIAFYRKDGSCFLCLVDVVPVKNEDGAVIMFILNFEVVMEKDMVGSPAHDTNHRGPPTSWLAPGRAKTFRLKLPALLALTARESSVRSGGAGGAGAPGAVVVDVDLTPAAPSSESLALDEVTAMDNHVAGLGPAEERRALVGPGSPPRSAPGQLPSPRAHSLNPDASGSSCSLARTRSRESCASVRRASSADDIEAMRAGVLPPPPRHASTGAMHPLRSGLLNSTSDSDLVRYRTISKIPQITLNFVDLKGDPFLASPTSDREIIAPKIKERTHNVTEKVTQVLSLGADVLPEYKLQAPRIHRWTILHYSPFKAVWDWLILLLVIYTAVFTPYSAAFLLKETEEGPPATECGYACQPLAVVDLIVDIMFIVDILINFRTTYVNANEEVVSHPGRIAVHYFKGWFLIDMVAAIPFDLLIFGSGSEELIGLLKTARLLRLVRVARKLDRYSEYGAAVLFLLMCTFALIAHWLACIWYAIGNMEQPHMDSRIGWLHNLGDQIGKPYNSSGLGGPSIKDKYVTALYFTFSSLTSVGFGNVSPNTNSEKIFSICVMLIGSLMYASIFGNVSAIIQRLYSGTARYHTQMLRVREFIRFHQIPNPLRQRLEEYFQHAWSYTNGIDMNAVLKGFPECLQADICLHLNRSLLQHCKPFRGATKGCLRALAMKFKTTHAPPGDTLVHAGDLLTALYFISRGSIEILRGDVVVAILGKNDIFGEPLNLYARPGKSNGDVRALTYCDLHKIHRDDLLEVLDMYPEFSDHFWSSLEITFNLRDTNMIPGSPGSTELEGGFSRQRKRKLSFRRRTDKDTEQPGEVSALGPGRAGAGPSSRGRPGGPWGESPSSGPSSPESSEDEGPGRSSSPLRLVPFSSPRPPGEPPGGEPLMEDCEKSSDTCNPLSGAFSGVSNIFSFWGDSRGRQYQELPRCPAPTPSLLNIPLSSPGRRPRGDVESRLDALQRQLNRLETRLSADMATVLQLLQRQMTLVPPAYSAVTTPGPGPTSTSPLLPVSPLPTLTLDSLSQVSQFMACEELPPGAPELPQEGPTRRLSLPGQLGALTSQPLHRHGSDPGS
Experimental: The effects of Compound A on the human ether-à-go-go-related gene (hERG) current were evaluated using the whole-cell patch-clamp method in human embryonic kidney (HEK293) cells stably expressing the hERG channel. Cells were treated with Compound A at concentrations of 1, 3, 10, and 30 μmol/L, positive control (E-4031) at 0.1 μmol/L, or vehicle (0.3 v/v % dimethyl sulfoxide) for 10 minutes.

cardiovascular system [2] = test: Cardiovascular system in halothane-anesthetized dogs; format: in vivo, dog; settings: intravenous infusion up to 3-mg/kg as free base; non-GLP
Experimental: Effects of Compound A on the cardiovascular system were evaluated with halothane-anesthetized dogs. Doses of 0, 0.3, 1, and 3 mg/kg of Compound A as free base were infused intravenously in ascending order to the same 3 male dogs at 0.1 mL/kg/min for 10 minutes cumulatively with 30 minutes interval between the start of infusion. Heart rate, systolic, diastolic, and mean blood pressure, cardiac output, total peripheral resistance, left ventricular end-diastolic pressure, maximum upstroke velocity of the left ventricular pressure, and electrocardiogram parameters (PR interval, QRS duration, QT interval, and QTcV) were evaluated.

CC(=O)N[C@H]1CC[C@H](NC(=O)CN2CCN(c3nncc(-c4ccc(C)cc4)n3)CC2)CC1 [Compound A HBr]
overnight reduction of systolic BP (24 h ambulatory) (hypertensive subjects; 100 mg QD cohort): −11.5+/−2.9 mmHg
Change in ABPM (24 h) BPdias, Mean (sem) (hypertensive subjects; 12.5 mg BID): −5.4 (2.2) mmHg
Change in ABPM (24 h) BPmcan, Mean (sem) (hypertensive subjects; 12.5 mg BID): −5.5 (2.7) mmHg
Change in ABPM (24 h) BPsys, Mean (sem) (hypertensive subjects; 12.5 mg BID): −5.7 (3.2) mmHg
Change in ABPM (night) BPsys, Mean (sem) (hypertensive subjects; 12.5 mg BID): −7.5 (4.0) mmHg
Subjects with nighttime Dip 10-20% (hypertensive subjects; 12.5 mg BID): 31%
Subjects with nighttime Dip <10% (hypertensive subjects; 12.5 mg BID): 69%
Subjects with nighttime Dip >20% (hypertensive subjects; 12.5 mg BID): 0%
Change in ABPM (24 h) BPdias, Mean (sem) (hypertensive subjects; 12.5 mg QD): −2.3 (1.7) mmHg
Change in ABPM (24 h) BPmcan, Mean (sem) (hypertensive subjects; 12.5 mg QD): −3.7 (2.6) mmHg
Change in ABPM (24 h) BPsys, Mean (sem) (hypertensive subjects; 12.5 mg QD): −5.2 (3.4) mmHg
Change in ABPM (night) BPsys, Mean (sem) (hypertensive subjects; 12.5 mg QD): −5.4 (4.2) mmHg
Subjects with nighttime Dip 10-20% (hypertensive subjects; 12.5 mg QD): 36%
Subjects with nighttime Dip <10% (hypertensive subjects; 12.5 mg QD): 64%
Subjects with nighttime Dip >20% (hypertensive subjects; 12.5 mg QD): 0%
Change in ABPM (24 h) BPdias, Mean (sem) (hypertensive subjects; 25 mg BID): −6.1 (1.8) mmHg
Change in ABPM (24 h) BPmcan, Mean (sem) (hypertensive subjects; 25 mg BID): −7.4 (2.3) mmHg
Change in ABPM (24 h) BPsys, Mean (sem) (hypertensive subjects; 25 mg BID): −8.7 (2.9) mmHg
Change in ABPM (night) BPsys, Mean (sem) (hypertensive subjects; 25 mg BID): −6.0 (2.8) mmHg
Subjects with nighttime Dip 10-20% (hypertensive subjects; 25 mg BID): 17%
Subjects with nighttime Dip <10% (hypertensive subjects; 25 mg BID): 79%
Subjects with nighttime Dip >20% (hypertensive subjects; 25 mg BID): 4%
Change in ABPM (24 h) BPdias, Mean (sem) (hypertensive subjects; 50 mg QD): −3.0 (1.6) mmHg
Change in ABPM (24 h) BPmcan, Mean (sem) (hypertensive subjects; 50 mg QD): −2.4 (2.2) mmHg
Change in ABPM (24 h) BPsys, Mean (sem) (hypertensive subjects; 50 mg QD): −1.8 (3.0) mmHg
Change in ABPM (night) BPsys, Mean (sem) (hypertensive subjects; 50 mg QD): 2.4 (4.2) mmHg
Subjects with nighttime Dip 10-20% (hypertensive subjects; 50 mg QD): 21%
Subjects with nighttime Dip <10% (hypertensive subjects; 50 mg QD): 78%
Subjects with nighttime Dip >20% (hypertensive subjects; 50 mg QD): 0%
Change in ABPM (24 h) BPdias, Mean (sem) (hypertensive subjects; 100 mg QD): −5.9 (1.5) mmHg
Change in ABPM (24 h) BPmcan, Mean (sem) (hypertensive subjects; 100 mg QD): −7.4 (1.8) mmHg
Change in ABPM (24 h) BPsys, Mean (sem) (hypertensive subjects; 100 mg QD): −8.9 (2.2) mmHg
Change in ABPM (night) BPsys, Mean (sem) (hypertensive subjects; 100 mg QD): −11.5 (2.5) mmHg
Subjects with nighttime Dip 10-20% (hypertensive subjects; 100 mg QD): 46%
Subjects with nighttime Dip <10% (hypertensive subjects; 100 mg QD): 46%
Subjects with nighttime Dip >20% (hypertensive subjects; 100 mg QD): 8%

CC(=O)N[C@H]1CC[C@H](NC(=O)CN2CCN(c3nncc(-c4ccc(C)cc4)n3)CC2)CC1 [Compound A]
effects on cardiovascular parameters (blood pressure, heart rate, electrocardiogram) (cardiovascular system [1]): no effects
IC50 (hERG channel): > 30 µM
inhibition at 10 min, 30 μmol/L (hERG channel; human, HEK293 cells stably expressing the hERG channel, 30 μmol/L): 27%
effects on the cardiovascular system (cardiovascular system [2]): no effects
